Test [1] addresses SMARCA2 (Homo sapiens (Human), UniProt P51531). The experiment in a line: SMARCA2 HiBiT degradation assay in HeLa cells. The format is cell-based. The following applies: 18 hours; for DC50: read-out: DC50 (SM2-HeLa) SMARCA2 degradation potency; for Dmax: read-out: Dmax % (SM2-HeLa) maximum SMARCA2 degradation within the concentrations tested. Put shortly: (§1)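 HeLa monoclonal lines carrying a heterozygous HiBiT knock-in on SMARCA2 or SMARCA4 were seeded at 2500 cells/well in EMEM with 10% FBS. After 18 h compound exposure at 37 °C, Nano-Glo HiBiT lytic detection ran 30-60 min at RT before the luminescence read. Values are from curve fits.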
A general note: HiBiT is a short tag that completes a luciferase, so light tracks the accessible tagged protein.

For test [2], the target named is SMARCA4 (Homo sapiens (Human), UniProt P51532). The experiment in a line: SMARCA4 HiBiT degradation assay in HeLa cells. The format is cell-based. The following applies: 18 hours; for DC50: read-out: DC50 (SM4-HeLa) SMARCA4 degradation potency; for Dmax: HeLa, read-out: Dmax % (SM4-HeLa) maximum SMARCA4 degradation within the concentrations tested. Put shortly:
as §1

Data on 9 molecules can be found in patent publication US20240018158A1, “BRM TARGETING COMPOUNDS AND ASSOCIATED METHODS OF USE” (Prelude Therapeutics Incorporated, priority 2020, published 2024).

SMARCA4, sequence (P51532 whole entry): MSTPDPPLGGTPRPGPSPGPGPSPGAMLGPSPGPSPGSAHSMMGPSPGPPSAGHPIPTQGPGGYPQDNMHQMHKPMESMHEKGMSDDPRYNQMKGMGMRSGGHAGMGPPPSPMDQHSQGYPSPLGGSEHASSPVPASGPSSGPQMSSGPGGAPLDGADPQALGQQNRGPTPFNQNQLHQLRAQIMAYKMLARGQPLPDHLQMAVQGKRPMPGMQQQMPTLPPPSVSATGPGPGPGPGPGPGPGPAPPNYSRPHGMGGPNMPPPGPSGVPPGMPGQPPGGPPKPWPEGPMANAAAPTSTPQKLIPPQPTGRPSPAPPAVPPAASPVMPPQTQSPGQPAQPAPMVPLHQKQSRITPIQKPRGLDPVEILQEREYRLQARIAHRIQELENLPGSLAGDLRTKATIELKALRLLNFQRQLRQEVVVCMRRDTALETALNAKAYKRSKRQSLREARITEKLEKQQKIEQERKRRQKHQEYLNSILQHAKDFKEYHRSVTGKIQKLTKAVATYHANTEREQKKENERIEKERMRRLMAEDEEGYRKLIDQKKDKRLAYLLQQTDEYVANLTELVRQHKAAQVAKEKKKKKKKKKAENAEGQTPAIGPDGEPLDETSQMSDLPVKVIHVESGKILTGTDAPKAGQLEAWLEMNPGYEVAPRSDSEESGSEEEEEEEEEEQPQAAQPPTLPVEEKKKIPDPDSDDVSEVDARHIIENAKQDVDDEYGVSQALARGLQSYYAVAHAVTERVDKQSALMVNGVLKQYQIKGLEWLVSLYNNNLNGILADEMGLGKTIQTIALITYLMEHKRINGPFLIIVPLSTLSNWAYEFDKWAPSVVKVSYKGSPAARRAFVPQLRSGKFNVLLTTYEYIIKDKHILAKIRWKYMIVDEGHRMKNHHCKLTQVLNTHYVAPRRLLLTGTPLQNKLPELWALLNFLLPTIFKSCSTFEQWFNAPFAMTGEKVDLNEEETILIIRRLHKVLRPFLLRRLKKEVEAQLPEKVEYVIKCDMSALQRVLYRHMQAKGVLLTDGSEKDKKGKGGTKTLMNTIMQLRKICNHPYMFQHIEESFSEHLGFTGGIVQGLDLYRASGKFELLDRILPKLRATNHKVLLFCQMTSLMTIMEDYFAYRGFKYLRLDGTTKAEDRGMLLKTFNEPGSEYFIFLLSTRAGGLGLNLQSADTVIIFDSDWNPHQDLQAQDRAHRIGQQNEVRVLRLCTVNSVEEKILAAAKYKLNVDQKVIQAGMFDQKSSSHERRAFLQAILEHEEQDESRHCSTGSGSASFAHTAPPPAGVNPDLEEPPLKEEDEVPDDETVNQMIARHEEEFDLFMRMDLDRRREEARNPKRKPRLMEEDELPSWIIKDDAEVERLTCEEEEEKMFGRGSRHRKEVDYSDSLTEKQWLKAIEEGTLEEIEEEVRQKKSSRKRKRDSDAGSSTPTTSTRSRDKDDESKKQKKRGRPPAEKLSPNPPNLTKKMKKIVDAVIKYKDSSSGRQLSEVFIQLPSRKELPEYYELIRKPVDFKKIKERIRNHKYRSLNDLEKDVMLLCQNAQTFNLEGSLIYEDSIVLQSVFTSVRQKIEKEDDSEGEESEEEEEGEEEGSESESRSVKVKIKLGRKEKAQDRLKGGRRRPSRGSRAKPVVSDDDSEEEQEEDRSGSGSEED
SMARCA2, sequence (P51531 whole entry): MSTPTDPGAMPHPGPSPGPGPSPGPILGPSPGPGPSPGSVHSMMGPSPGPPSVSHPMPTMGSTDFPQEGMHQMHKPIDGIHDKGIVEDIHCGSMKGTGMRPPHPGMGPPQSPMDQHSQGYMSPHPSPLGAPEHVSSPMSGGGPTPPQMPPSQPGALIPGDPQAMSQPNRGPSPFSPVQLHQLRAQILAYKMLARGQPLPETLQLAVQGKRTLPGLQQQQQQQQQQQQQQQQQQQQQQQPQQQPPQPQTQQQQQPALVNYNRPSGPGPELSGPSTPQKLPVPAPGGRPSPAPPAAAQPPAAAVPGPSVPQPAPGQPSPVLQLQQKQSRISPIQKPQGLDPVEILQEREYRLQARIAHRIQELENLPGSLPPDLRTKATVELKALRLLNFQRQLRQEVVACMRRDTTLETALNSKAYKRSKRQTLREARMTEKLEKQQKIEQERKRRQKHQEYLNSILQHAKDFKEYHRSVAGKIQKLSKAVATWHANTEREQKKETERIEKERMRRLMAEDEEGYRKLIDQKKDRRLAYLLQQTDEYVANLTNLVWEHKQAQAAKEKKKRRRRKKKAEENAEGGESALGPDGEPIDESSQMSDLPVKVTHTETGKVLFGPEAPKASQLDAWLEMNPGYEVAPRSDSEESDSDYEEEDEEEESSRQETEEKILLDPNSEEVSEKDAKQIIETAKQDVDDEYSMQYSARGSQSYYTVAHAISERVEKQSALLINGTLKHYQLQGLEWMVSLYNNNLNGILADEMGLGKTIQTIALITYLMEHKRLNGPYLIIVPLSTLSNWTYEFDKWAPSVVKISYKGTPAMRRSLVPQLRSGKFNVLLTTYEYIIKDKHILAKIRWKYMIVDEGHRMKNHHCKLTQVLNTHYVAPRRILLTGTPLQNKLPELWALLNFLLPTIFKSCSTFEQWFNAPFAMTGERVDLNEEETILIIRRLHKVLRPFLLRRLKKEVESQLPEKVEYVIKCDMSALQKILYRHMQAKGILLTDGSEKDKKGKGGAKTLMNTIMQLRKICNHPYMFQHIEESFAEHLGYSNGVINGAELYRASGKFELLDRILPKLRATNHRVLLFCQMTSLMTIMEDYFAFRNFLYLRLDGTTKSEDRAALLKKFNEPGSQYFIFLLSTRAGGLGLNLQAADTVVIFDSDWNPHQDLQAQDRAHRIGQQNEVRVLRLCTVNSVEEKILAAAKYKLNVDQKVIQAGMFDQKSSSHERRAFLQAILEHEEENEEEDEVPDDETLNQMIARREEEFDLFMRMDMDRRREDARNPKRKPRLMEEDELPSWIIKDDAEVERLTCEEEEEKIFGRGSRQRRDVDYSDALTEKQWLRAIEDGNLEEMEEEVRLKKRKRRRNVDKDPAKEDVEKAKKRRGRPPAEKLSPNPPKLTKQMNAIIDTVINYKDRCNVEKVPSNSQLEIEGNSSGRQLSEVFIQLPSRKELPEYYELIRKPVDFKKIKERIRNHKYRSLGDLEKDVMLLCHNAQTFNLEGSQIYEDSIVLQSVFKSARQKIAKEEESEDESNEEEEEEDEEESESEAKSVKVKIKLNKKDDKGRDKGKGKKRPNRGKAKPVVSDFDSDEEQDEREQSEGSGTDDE

In the case of `Cc1ncsc1-c1ccc([C@H](C)NC(=O)[C@@H]2C[C@@H](O)CN2C(=O)[C@@H](c2cc(OCCN3CC(O)C(N4CCN5c6cc(-c7ccccc7O)nnc6NC[C@H]5C4)C3)no2)C(C)C)cc1` (stereo partly drawn) [Example 93, (2S,4R)-4-hydroxy-1-((2R)-2-(3-(2-(3-hydroxy-4-((S)-2-(2-hydroxyphenyl)-5,6,6a,7,9,10-hexahydro-8H-pyrazino[1′,2′:4,5]pyrazino[2,3-c]pyridazin-8-yl)pyrrolidin-1-yl)ethoxy)isoxazol-5-yl)-3-methylbutanoyl)-N-((S)-1-(4-(4-methylthiazol-5-yl)phenyl)ethyl)pyrrolidine-2-carboxamide], in test [1], the DC50 (commonly the midpoint of the concentration-degradation curve) is less than 100 nM and the Dmax is greater than 75%. In test [2], the DC50 is less than 100 nM and the Dmax was greater than 75%.
Turning to `Cc1ncsc1-c1ccc([C@H](C)NC(=O)[C@@H]2C[C@@H](O)CN2C(=O)[C@@H](c2cc(OCCN3CCC(N4CCN5c6cc(-c7ccccc7O)nnc6NC[C@H]5C4)C(O)C3)no2)C(C)C)cc1` (stereo partly drawn) [Example 94, (2S,4R)-4-hydroxy-1-((2R)-2-(3-(2-(3-hydroxy-4-((S)-2-(2-hydroxyphenyl)-5,6,6a,7,9,10-hexahydro-8H-pyrazino[1′,2′:4,5]pyrazino[2,3-c]pyridazin-8-yl)piperidin-1-yl)ethoxy)isoxazol-5-yl)-3-methylbutanoyl)-N-((S)-1-(4-(4-methylthiazol-5-yl)phenyl)ethyl)pyrrolidine-2-carboxamide], in test [1], the DC50 is less than 100 nM and the Dmax is greater than 75%. In test [2], the DC50 was less than 100 nM and the Dmax was greater than 75%.
For the molecule `Cc1ncsc1-c1ccc([C@H](C)NC(=O)[C@@H]2C[C@@H](O)CN2C(=O)[C@@H](c2cc(OCCN3CCN4c5cc(-c6ccccc6O)nnc5NC(C)C4C3)no2)C(C)C)cc1` (stereo partly drawn) [Example 95, (2S,4R)-4-hydroxy-1-((2R)-2-(3-(2-(2-(2-hydroxyphenyl)-6-methyl-5,6,6a,7,9,10-hexahydro-8H-pyrazino[1′,2′:4,5]pyrazino[2,3-c]pyridazin-8-yl)ethoxy)isoxazol-5-yl)-3-methylbutanoyl)-N-((S)-1-(4-(4-methylthiazol-5-yl)phenyl)ethyl)pyrrolidine-2-carboxamide], in test [1], the DC50 is less than 100 nM and the Dmax is greater than 75%. Further, in test [2], the 50% degradation concentration (DC50) is less than 100 nM and the Dmax is greater than 75%.
Regarding `Cc1ncsc1-c1ccc([C@H](C)NC(=O)[C@@H]2C[C@@H](O)CN2C(=O)[C@@H](c2cc(OCCN3CCC(N4CCN5c6cc(-c7ccccc7O)nnc6NC(C)C5C4)CC3)no2)C(C)C)cc1` (stereo partly drawn) [Example 96, (2S,4R)-4-hydroxy-1-((2R)-2-(3-(2-(4-(2-(2-hydroxyphenyl)-6-methyl-5,6,6a,7,9,10-hexahydro-8H-pyrazino[1′,2′:4,5]pyrazino[2,3-c]pyridazin-8-yl)piperidin-1-yl)ethoxy)isoxazol-5-yl)-3-methylbutanoyl)-N-((S)-1-(4-(4-methylthiazol-5-yl)phenyl)ethyl)pyrrolidine-2-carboxamide], in test [1], the DC50 is less than 100 nM and the Dmax was greater than 75%. In addition, in test [2], the DC50 is less than 100 nM and the Dmax is greater than 75%.
Turning to `Cc1ncsc1-c1ccc([C@H](C)NC(=O)[C@@H]2C[C@@H](O)CN2C(=O)[C@@H](c2cc(O[C@@H](C)CN3CCC(N4CCN5c6cc(-c7ccccc7O)nnc6NC(C)C5C4)CC3)no2)C(C)C)cc1` (stereo partly drawn) [Example 97, (2S,4R)-4-hydroxy-1-((2R)-2-(3-(((2S)-1-(4-(2-(2-hydroxyphenyl)-6-methyl-5,6,6a,7,9,10-hexahydro-8H-pyrazino[1′,2′:4,5]pyrazino[2,3-c]pyridazin-8-yl)piperidin-1-yl)propan-2-yl)oxy)isoxazol-5-yl)-3-methylbutanoyl)-N-((S)-1-(4-(4-methylthiazol-5-yl)phenyl)ethyl)pyrrolidine-2-carboxamide], in test [1], the DC50 was less than 100 nM and the Dmax was greater than 75%. In addition, in test [2], the DC50 is less than 100 nM and the Dmax was greater than 75%.
Consider `Cc1ncsc1-c1ccc([C@H](C)NC(=O)[C@@H]2C[C@@H](O)CN2C(=O)[C@@H](c2cc(OCCN3CCC(C(=O)N4CCN5c6cc(-c7ccccc7O)nnc6NC[C@H]5C4)CC3)no2)C(C)C)cc1` [Example 98, (2S,4R)-4-hydroxy-1-((R)-2-(3-(2-(4-((S)-2-(2-hydroxyphenyl)-6,6a,7,8,9,10-hexahydro-5H-pyrazino[1′,2′:4,5]pyrazino[2,3-c]pyridazine-8-carbonyl)piperidin-1-yl)ethoxy)isoxazol-5-yl)-3-methylbutanoyl)-N-((S)-1-(4-(4-methylthiazol-5-yl)phenyl)ethyl)pyrrolidine-2-carboxamide], for which the DC50 in test [1] and in test [2] was less than 100 nM throughout. For the same molecule, the Dmax in test [1] and in test [2] was greater than 75% throughout.
Regarding `Cc1ncsc1-c1ccc([C@H](C)NC(=O)[C@@H]2C[C@@H](O)CN2C(=O)[C@@H](c2cc(OCCN3CCC(N(C)C4CCN5c6cc(-c7ccccc7O)nnc6NCC5C4)CC3)no2)C(C)C)cc1` (stereo partly drawn) [Example 99, (2S,4R)-4-hydroxy-1-((2R)-2-(3-(2-(4-((2-(2-hydroxyphenyl)-6,6a,7,8,9,10-hexahydro-5H-pyrido[1′,2′:4,5]pyrazino[2,3-c]pyridazin-8-yl)(methyl)amino)piperidin-1-yl)ethoxy)isoxazol-5-yl)-3-methylbutanoyl)-N-((S)-1-(4-(4-methylthiazol-5-yl)phenyl)ethyl)pyrrolidine-2-carboxamide], in test [1], the DC50 was less than 100 nM and the Dmax was greater than 75%. In addition, in test [2], the DC50 was less than 100 nM and the Dmax was greater than 75%.
Consider `Cc1ncsc1-c1ccc([C@H](C)NC(=O)[C@@H]2C[C@@H](O)CN2C(=O)[C@@H](c2cc(O[C@@H](C)CN3CCC(CN4CCN5c6cc(-c7ccccc7O)nnc6NC[C@H]5C4)CC3)no2)C(C)C)cc1` [Example 100, (2S,4R)-4-hydroxy-1-((R)-2-(3-(((S)-1-(4-(((S)-2-(2-hydroxyphenyl)-5,6,6a,7,9,10-hexahydro-8H-pyrazino[1′,2′:4,5]pyrazino[2,3-c]pyridazin-8-yl)methyl)piperidin-1-yl)propan-2-yl)oxy)isoxazol-5-yl)-3-methylbutanoyl)-N-((S)-1-(4-(4-methylthiazol-5-yl)phenyl)ethyl)pyrrolidine-2-carboxamide], for which the DC50 in test [1] and in test [2] was less than 100 nM each time. The Dmax in test [1] and in test [2] was greater than 75% each time.
With `Cc1ncsc1-c1ccc([C@H](C)NC(=O)[C@@H]2C[C@@H](O)CN2C(=O)[C@@H](c2cc(OCCN3CCC(CN4C[C@@H]5CNc6nnc(-c7ccccc7O)cc6N5C[C@@H]4C)CC3)no2)C(C)C)cc1` [Example 101, (2S,4R)-4-hydroxy-1-((R)-2-(3-(2-(4-(((6aS,9S)-2-(2-hydroxyphenyl)-9-methyl-5,6,6a,7,9,10-hexahydro-8H-pyrazino[1′,2′:4,5]pyrazino[2,3-c]pyridazin-8-yl)methyl)piperidin-1-yl)ethoxy)isoxazol-5-yl)-3-methylbutanoyl)-N-((S)-1-(4-(4-methylthiazol-5-yl)phenyl)ethyl)pyrrolidine-2-carboxamide], in test [1], the 50% degradation concentration (DC50) is less than 100 nM and the Dmax was greater than 75%. Further, in test [2], the DC50 was less than 100 nM and the Dmax was greater than 75%.
